Each structure is given as a SMILES string. Read-outs that look alike come from different tables or passages of the source. Some results are limits rather than exact numbers.

One assay deals with T1, SpsB (Staphylococcus aureus, UniProt P0A070).
T1 construct: using a bacterial membrane fraction as a source of SpsB; from tissue
T1 sequence (P0A070 1-191): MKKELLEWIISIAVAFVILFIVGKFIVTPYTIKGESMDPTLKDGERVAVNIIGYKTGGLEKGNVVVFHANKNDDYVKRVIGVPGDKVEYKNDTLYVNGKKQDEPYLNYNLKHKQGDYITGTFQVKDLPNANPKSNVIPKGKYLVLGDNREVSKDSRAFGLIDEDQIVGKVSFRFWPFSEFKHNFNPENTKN
Briefly: Inhibition of SpsB enzyme activity (fluorescence-based assay, bacterial membrane fraction). The assay is classed as biochemical. Here is the method:
Signal peptidase enzyme activity was measured in a fluorescence-based assay using a bacterial membrane fraction as a source of SpsB (See Bruton et al., 2003, Eur J Med Chem 38:351-356). The SpsB substrate is a synthetic lipopeptide, decanoyl-K(DABCYL)-TPTAKA↓ASKKD-D(EDANS)—NH2 (prepared by JPT Peptide Technologies, Berlin, Germany). Assays were performed with 20 μM peptide substrate (Km≈5 μM) and reactions were initiated with enzyme addition (final protein concentration of 0.6 mg/mL). SpsB mediated cleavage of the peptide substrate was detected as an increase in fluorescence (excitation 340 nm/emission 460 nm).

In assay [1] the test system is MB 5393 (COL), a methicillin-resistant S. aureus strain. Description: Determination of minimum and synergistic inhibitory concentration. The assay is classed as cell-based. Particulars: for SIC: presence of imipenem (4 μg/mL); for MIC: Staphylococcus aureus. Here is the method: MB 5393 (COL), a methicillin-resistant S. aureus strain, was inoculated into Trypticase Soy Broth (TSB, BBL) and grown in a humidified incubator for 18 hours with rotary shaking at 220 rpm and kept on ice until used.
A quantity of imipenem (Merck Chemical Collection) was weighed out and dissolved into sterile 10 mM MOPS buffer at pH 7. This solution was diluted to 1600 μg/mL, 200 μg/mL, and 25 μg/mL and filter-sterilized through a 0.45 μm filter. From these solutions, seven 1:2 serial dilutions were prepared using sterile 10 mM MOPS buffer at pH 7. The final concentration ranges tested were 128 to 2 μg/mL, 16 to […], and 2 to 0.03 μg/mL. The solutions were kept refrigerated until used.
Test compounds (EXAMPLES 1-67) were prepared in sterile water or DMSO at a concentration of 3.2 mg/mL. From this solution, 11 serial 1:2 dilutions were prepared using sterile water. The final concentration range tested was 64 to 0.0313 μg/mL. The solutions were kept refrigerated until used.
Two-fold serial dilutions of test compounds were tested in the presence and absence of subinhibitory concentrations of imipenem (4 μg/mL) in 96-well U bottom microliter dishes in microbiological growth media. The plates were inoculated with bacterial cells to a final concentration of ˜5×10^5 CFU/mL. Test plates were incubated stationery at 37° C. for 22-24 hours.
After 22 hours of incubation, the Minimum inhibitory concentrations (MICs) were determined, defined as the lowest concentration of antibiotic that prevented all visible growth in the absence of imipenem. Synergistic inhibitory concentrations (SICs) were determined, defined as the lowest concentration of antibiotic that prevented all visible growth in the presence of imipenen.

The mark [2] stands for this setting: MRSA COL, absence of imipenem, 22 hours, read-out: MIC.

What is called IC50 is the concentration needed to halve the response being measured. By MIC is commonly meant the smallest concentration in the dilution series that meets the test's criterion for growth inhibition. For `CCCc1ccc(-c2ccc(C(=O)NCCC(=O)N3CCC[C@H]3C(=O)N(C)[C@@H]3C(=O)N[C@@H](C)C(=O)N[C@H](C(=O)O)Cc4ccc(O)c(c4)-c4cc3ccc4O)cc2)cc1` [EXAMPLE 12, (8S,11S,14S)-3,18-dihydroxy-11-methyl-14-(methyl{[(2S)-1-(3-{[(4′-propylbiphenyl-4-yl)carbonyl]amino}propanoyl)pyrrolidin-2-yl]carbonyl}amino)-10,13-dioxo-9,12-diazatricyclo[13.3.1.1^2,6]icosa-1(19),2(20),3,5,15,17-hexaene-8-carboxylic acid], the IC50 at SpsB lay within 10 to 50 nM. Besides, the SIC result in assay [1] (MRSA COL, 22 hours) is “H (H: SIC 0.062-1)”. Besides, the MIC in assay [1] (setting [2]) is greater than 8 µg/mL.
Turning to `CCCc1ccc(-c2ccc(C(=O)NCCC(=O)N3CCC[C@@H]3C(=O)N(C)[C@@H]3C(=O)N[C@@H](C)C(=O)N[C@H](C(=O)O)Cc4ccc(OC)c(c4)-c4cc3ccc4OC)cc2)cc1` [EXAMPLE 13, (8S,11S,14S)-3,18-dimethoxy-11-methyl-14-(methyl{[(2R)-1-(3-{[(4′-propylbiphenyl-4-yl)carbonyl]amino}propanoyl)pyrrolidin-2-yl]carbonyl}amino)-10,13-dioxo-9,12-diazatricyclo[13.3.1.1^2,6]icosa-1(19),2(20),3,5,15,17-hexaene-8-carboxylic acid], at SpsB, the IC50 is greater than 50 nM. Further, in assay [1] (MRSA COL, 22 hours), the SIC entry is listed as “I (I: SIC >1)”. Moreover, in assay [1] (setting [2]), the MIC was greater than 8 µg/mL.
The like results for `C[C@@H]1NC(=O)[C@@H](N(C)C(=O)[C@H](CCCCN)NC(=O)CCNC(=O)c2ccc(CCCCCCCCc3ccccc3)cc2)c2ccc(O)c(c2)-c2cc(ccc2O)C[C@@H](C(=O)O)NC1=O.O=C(O)C(F)(F)F` [EXAMPLE 15, (5S)-6-[[(7S,10S,13S)-13-carboxy-3,18-dihydroxy-10-methyl-8,11-dioxo-9,12-diazatricyclo[13.3.1.12,6]icosa-1(19),2(20),3,5,15,17-hexaen-7-yl](methyl)amino]-6-oxo-5-[(3-{[4-(8-phenyloctyl)benzoyl]amino}propanoyl)amino]hexan-1-aminium] were, in that order, less than 10 nM, “G (G: SIC <0.0625)” and less than 1 µg/mL.
The corresponding values for `CCCCCCCCCc1ccc(-c2ccc(C(=O)NCCC(=O)N[C@@H](CCCCN)C(=O)N(C)[C@@H]3C(=O)N[C@@H](C)C(=O)N[C@H](C(=O)O)Cc4ccc(O)c(c4)-c4cc3ccc4O)cc2)cc1.O=C(O)C(F)(F)F` [EXAMPLE 16, (5S)-6-[[(7S,10S,13S)-13-carboxy-3,18-dihydroxy-10-methyl-8,11-dioxo-9,12-diazatricyclo[13.3.1.1^2,6]icosa-1(19),2(20),3,5,15,17-hexaen-7-yl](methyl)amino]-5-[(3-{[(4′-nonylbiphenyl-4-yl)carbonyl]amino}propanoyl)amino]-6-oxohexan-1-aminium trifluoroacetate] are less than 10 nM, “G (G: SIC <0.0625)” and less than 1 µg/mL.
In turn, `CCCCCCCCCCc1ccc2cc(C(=O)NCCC(=O)N[C@@H](CCCCN)C(=O)N(C)[C@@H]3C(=O)N[C@@H](C)C(=O)N[C@H](C(=O)O)Cc4ccc(O)c(c4)-c4cc3ccc4O)ccc2c1.O=C(O)C(F)(F)F` [EXAMPLE 17, (5S)-6-[[(7S,10S,13S)-13-carboxy-3,18-dihydroxy-10-methyl-8,11-dioxo-9,12-diazatricyclo[13.3.1.1^2,6]icosa-1(19),2(20),3,5,15,17-hexaen-7-yl](methyl)amino]-5-({3-[(6-decyl-2-naphthoyl)amino]propanoyl}amino)-6-oxohexan-1-aminium trifluoroacetate] showed a half-maximal inhibitory concentration (IC50) at SpsB of less than 10 nM. In addition, the SIC result in assay [1] (MRSA COL, 22 hours) is “G (G: SIC <0.0625)”. The minimal inhibitory concentration (MIC) in assay [1] (setting [2]) is less than 1 µg/mL.
The like results for `CCCCCCCCCc1ccc(-c2ccc(C(=O)NCCC(=O)N3CCC[C@H]3C(=O)N(C)[C@@H]3C(=O)N[C@@H](C)C(=O)N[C@H](C(=O)O)Cc4ccc(O)c(c4)-c4cc3ccc4O)cc2)cc1` [EXAMPLE 18, (8S,11S,14S)-3,18-dihydroxy-11-methyl-14-(methyl{[(2)-1-(3-{[(4′-nonylbiphenyl-4-yl)carbonyl]amino}propanoyl)pyrrolidin-2-yl]carbonyl}amino)-10,13-dioxo-9,12-diazatricyclo[13.3.1.1^2,6]icosa-1(19),2(20),3,5,15,17-hexaene-8-carboxylic acid] were, in that order, less than 10 nM, “H (H: SIC 0.062-1)” and 1 to 8 µg/mL.
The molecule `CCCCCCCCCc1ccc(-c2ccc(C(=O)NCCC(=O)N3CC[C@H]3C(=O)N(C)[C@@H]3C(=O)N[C@@H](C)C(=O)N[C@H](C(=O)O)Cc4ccc(O)c(c4)-c4cc3ccc4O)cc2)cc1` [EXAMPLE 19, (8S,11S,14S)-3,18-dihydroxy-11-methyl-14-(methyl{[(2)-1-(3-{[(4′-nonylbiphenyl-4-yl)carbonyl]amino}propanoyl)azetidin-2-yl]carbonyl}amino)-10,13-dioxo-9,12-diazatricyclo[13.3.1.1^2,6]icosa-1(19),2(20),3,5,15,17-hexaene-8-carboxylic acid] displayed an IC50 against SpsB of less than 10 nM. Further, the SIC result in assay [1] (MRSA COL, 22 hours) is on record as “G (G: SIC <0.0625)”. The MIC in assay [1] (setting [2]) lay in the range of 1 to 8 µg/mL.
`CCCCCCCCCCc1ccc2cc(C(=O)NCCC(=O)N3CC[C@H]3C(=O)N(C)[C@@H]3C(=O)N[C@@H](C)C(=O)N[C@H](C(=O)O)Cc4ccc(O)c(c4)-c4cc3ccc4O)ccc2c1` [EXAMPLE 20, (8S,11S,14S)-3,18-dihydroxy-11-methyl-14-(methyl[(2R)-1-{3-[(6-decyl-2-naphthoyl)amino]propanoylazetidin-2-yl]carbonyl}amino)-10,13-dioxo-9,12-diazatricyclo[13.3.1.1^2,6]icosa-1(19),2(20),3,5,15,17-hexaene-8-carboxylic acid]: the IC50 on SpsB was less than 10 nM. The SIC result in assay [1] (MRSA COL, 22 hours) is “G (G: SIC <0.0625)”. Moreover, in assay [1] (setting [2]), the minimal inhibitory concentration (MIC) fell in the range of 1 to 8 µg/mL.
`C[C@@H]1NC(=O)[C@@H](N(C)C(=O)[C@H](CCCCN)NC(=O)CCNC(=O)c2ccc(-c3ccc(C4C5CC6CC(C5)CC4C6)cc3)cc2)c2ccc(O)c(c2)-c2cc(ccc2O)C[C@@H](C(=O)O)NC1=O` (stereo partly drawn) [EXAMPLE 21] showed a concentration for half-maximal inhibition (IC50) against SpsB of less than 10 nM. Also, in assay [1] (MRSA COL, 22 hours), the SIC entry is given as “G (G: SIC <0.0625)”. Moreover, the MIC in assay [1] (MRSA, 22 h) is less than 1 µg/mL.
`CC(c1ccc(-c2ccc(C(=O)NCCC(=O)N[C@@H](CCCCN)C(=O)N(C)[C@@H]3C(=O)N[C@@H](C)C(=O)N[C@H](C(=O)O)Cc4ccc(O)c(c4)-c4cc3ccc4O)cc2)cc1)C12CC3CC(CC(C3)C1)C2` (stereo partly drawn) [EXAMPLE 22] had a 50% inhibitory concentration (IC50) against SpsB of less than 10 nM. Also, in assay [1] (MRSA COL, 22 hours), the SIC result was “G (G: SIC <0.0625)”. Besides, the MIC in assay [1] (MRSA, 22 h) was less than 1 µg/mL.
The molecule `CCCCCCCCc1ccc(-c2ccc(C(=O)NCCC(=O)N[C@@H](CCCCN)C(=O)N(C)[C@@H]3C(=O)N[C@@H](C)C(=O)N[C@H](C(=O)O)Cc4ccc(O)c(c4)-c4cc3ccc4O)cc2)cc1` [EXAMPLE 23] gave a concentration for half-maximal inhibition (IC50) against SpsB of less than 10 nM. Also, in assay [1] (MRSA COL, 22 hours), the SIC result is on record as “G (G: SIC <0.0625)”. In assay [1] (MRSA, 22 h), the MIC is less than 1 µg/mL.
The like results for `CCCCCCCCCc1ccc(-c2ccc(C(=O)NCCC(=O)N[C@@H](CCCN)C(=O)N(C)C3C(=O)N[C@@H](C)C(=O)N[C@H](C(=O)O)Cc4ccc(O)c(c4)-c4cc3ccc4O)cc2)cc1` (stereo partly drawn) [EXAMPLE 24] were, in that order, less than 10 nM, “G (G: SIC <0.0625)” and less than 1 µg/mL.
The corresponding values for `CC(C)CCCC(C)CCc1ccc(-c2ccc(C(=O)NCCC(=O)N[C@@H](CCCCN)C(=O)N(C)[C@@H]3C(=O)N[C@@H](C)C(=O)N[C@H](C(=O)O)Cc4ccc(O)c(c4)-c4cc3ccc4O)cc2)cc1` (stereo partly drawn) [EXAMPLE 25] are less than 10 nM, “G (G: SIC <0.0625)” and less than 1 µg/mL.

For the origin of these results see US20130244929A1 (priority 2010, published 2013).
